The values that follow come from PMC8891185 (The Journal of Nutrition, 2021).

For series [1] the following is noted: 9-mo-old, iron-replete children, cited from earlier work; for iron bioavailability from inhibitory WG cereal: PA:Fe 2.2:1, no added AA.
For series [2] the following is noted: anemic infants; 5 mg/kg of Fe daily for 28 d; cited from earlier work.
For series [3] the following is noted: adult men; without AA; consumed in 1 or separate whole-maize porridge meals; cited from earlier work.
A short description of series [4]: Fractional iron absorption.
The conditions of series [5]: iron-deficient infants; AA at a molar ratio of 2:1; cited from earlier work.

Regarding `NCC(=O)[O-].NCC(=O)[O-].[Fe+2]` [FeBG, ferrous bisglycinate], in series [1], the “iron bioavailability from inhibitory WG cereal” value is listed as 5.2% and the “iron bioavailability from vegetable puree” value was 9%. Besides, the hemoglobin change entry in series [2] is “significant hemoglobin increases”. Further, the “iron bioavailability, times higher than FeSO4” value in series [3] is listed as 4−6 times.

On to `O=C([O-])/C=C/C(=O)[O-].[Fe+2]` [Fefum, ferrous fumarate], for which the “bioavailability of iron when consumed in WG-oat cereal” value in series [4] (WG-oat cereal with AA, nonsignificant difference between FeBG and Fefum) came to 9.2%. Besides, the “iron bioavailability in the noninhibitory reference meal” value in series [4] (refined wheat reference meal with AA) was 12.1%.

For the compound ferrous sulfate [FeSO4], in series [1], the “iron bioavailability from inhibitory WG cereal” value is 3.8% and the “iron bioavailability from vegetable puree” value is 9.9%. For the same compound, in series [5], the “bioavailability of iron as FeSO4 from refined wheat-based infant cereal, with dephytinization” value is 8.5% and the “bioavailability of iron as FeSO4 from refined wheat-based infant cereal, without dephytinization” value was 8.7%. Moreover, the hemoglobin change result in series [2] is on record as “significant hemoglobin increases”.
